Data reported in patent publication US20140242609A1, “Diagnosis and treatment of kidney stones, methods and compositions therefor” (Washington University, priority 2013, published 2014).

Key:
[1] = test system: claudin-14 protein; assay: claudin-14 protein levels in freshly isolated TALH cells pooled from treated mouse kidneys (western blot); type: in vivo; settings: for claudin-14 protein levels, change: 30 mg/kg BW−1 per day for 6 days, 24 hrs following the last treatment
Experimental: (§1) An immunomagnetic separation method was used to isolate the TAL cells from the mouse kidney (Hou et al., 2009). Antibodies against the TAL cell specific surface antigen, Tamm-Horsfall protein (THP), were coated onto the paramagnetic polystyrene beads (Dynabeads M-280; Dynal), allowing immunoprecipitation of the TAL cells from collagenase digested mouse kidneys. The isolated cells were plated in DMEM medium supplemented with 10% FBS, penicillin/streptomycin, and 1 mM sodium pyruvate for 16 hours, followed by immediate transfection with NFAT or antagomirs.
Because of the low abundance of claudin-14 proteins in the whole kidney, an immunomagnetic separation method was adapted to freshly isolate the TALH tubular cells from the kidneys of each treated mouse, pooled the TALH cells from all animals (N=5) within each treatment group and quantified claudin-14 protein levels by western blot. […] Claudin-14 proteins were immunostained in mouse kidneys to investigate changes in TJ localization.
as §1, with “TALH” for “TAL”, “kidney. (Gong Y,” for “kidney (Hou”, “al. 2012 and Gong Y, et al. 2013)” for “al., 2009).”, “protein,” for “protein (THP),”, “treatment.” for “transfection with NFAT or antagomirs.”
as §1, with “TALH” for “TAL”, “kidney. (Gong, Y.,” for “kidney (Hou”, “2012; Hou, J., et al., 2009)” for “2009).”, “(THP; a GPI-anchored protein that is exclusively expressed in the TALH and the early part of the DCT,) (Stricklett, P. K., et al., 2003; Bernascone, I., et al., 2010)” for “(THP),”, “NFAT.” for “NFAT or antagomirs.”
Changes in claudin-14 protein levels were captured as early as 2 hrs following a single oral dose of NPS2143 or cinacalcet (30 mg/kg BW^−1) treatment. Because of the low abundance of claudin-14 proteins in the whole kidney, the inventors adapted an immunomagnetic separation method to freshly isolate the TALH tubular cells from the kidneys of each treated mouse (described in Gong, Y., et al., 2012 and Hou, J., et al. 2009; see Methods), pooled the TALH cells from all animals (N=5) within each treatment group, isolated plasma membrane proteins and quantified claudin-14 protein levels by western blot. […] Although claudins were previously considered static molecules sequestered in the tight junction, several recent studies have found similarly rapid turnover rate of less than 60 min for claudins (see Discussion). Claudin-14 proteins were inummuostained in mouse kidneys to investigate changes in TJ localization.

[2] = test system: miR-9-1 promoter; assay: ChIP over miR-9-1 promoter in TALH cells of treated mice; type: in vivo, mouse; settings: for fold enrichment of NFATc1 over miR-9-1 promoter region: versus vehicle
Experimental: (§2) Freshly isolated TALH cells or primary TALH cell cultures were cross-linked in 1% paraformaldehyde (pH7.0) for 10 min at room temperature. The cross-linked cells were lysed following to instruction of MAGnify ChIP system (Invitrogen). Chromatin was sonicated into 500 bp fragments with Bioruptor UCD-200 (High power, 15 cycles of 30 seconds ON, 30 seconds OFF; Diagenode). Sheared chromatin was precipitated with antibody-bound Dynabeads (Invitrogen). Following reverse crosslink and DNA extraction, antibody-bound DNA was eluted and analyzed with real-time PCR. Two criteria for normalization were applied: fold enrichment over anti-IgG background signal and input control over chromatin input signal.
as §2, with “OFF,” for “OFF;”

[3] = test system: miR-374 promoter; assay: ChIP over miR-374 promoter in TALH cells of treated mice; type: in vivo, mouse; settings: for H3K9 and H3K14 acetylation levels, miR-374 promoter region / fold enrichment of NFATc1 over miR-374 promoter region: 30 mg/kg BW−1, 2 hrs; for H3K9 and H3K14 acetylation levels, miR-374 promoter region: higher than vehicle level; for fold enrichment of NFATc1 over miR-374 promoter region: versus vehicle
Experimental: as §2
as §2, with “OFF,” for “OFF;”

[4] = test system: claudin-14 promoter; assay: lacZ reporter of endogenous claudin-14 promoter activity in claudin-14+/lacZ mice; type: in vivo, mouse
Experimental: (§3) The inventors also sought for alternative mechanisms for claudin-14 gene regulation. Because the claudin-14 KO mouse was generated with a lacZ reporter gene replacing the last exon of claudin-14 gene (including the coding region and 3″-UTR) (Ben-Yosef et al., 2003), the expression of lacZ gene would provide a faithful measurement for endogenous claudin-14 promoter activity regardless of any microRNA based regulation. The claudin-14^+/lacZ mice were treated with cinacalcet or NPS2143 as described for WT mice.
as §3, with “explored” for “also sought for”, “3′-UTR; Ben-Yosef, T.,” for “3″-UTR) (Ben-Yosef”, “2003)” for “2003),”

β-galactosidase activity ([4]; isolated TALH cells of claudin-14+/lacZ mice, single-dose 30 mg/kg BW−1, 2 hrs) | SMILES | claudin-14 protein levels, change [1] | claudin-14 protein levels, percent of the vehicle treatment ([1]; single oral dose 30 mg/kg BW−1, 2 hrs, densitometric scale) [%] | H3K9 and H3K14 acetylation levels, miR-9-1 promoter region ([2]; 30 mg/kg BW−1, 2 hrs, higher than vehicle level) [fold] | fold enrichment of NFATc1 over miR-9-1 promoter region ([2]; 30 mg/kg BW−1, 2 hrs) | H3K9 and H3K14 acetylation levels, miR-374 promoter region [3] | fold enrichment of NFATc1 over miR-374 promoter region [3] | CLDN14 protein levels, reduction ([1]; 25 mg/kg BW−1, 4 hr) [%] | lacZ mRNA levels ([4]; 25 mg/kg BW−1, 4 hrs) | H3K9 and H3K14 acetylation, miR-9-1 promoter, increase ([2]; 25 mg/kg BW−1, 4 hrs) [fold] | NFAT binding to miR-9-1 promoter ([2]; 25 mg/kg BW−1, 4 hrs) | H3K9 and H3K14 acetylation, miR-374 promoter, increase ([3]; 25 mg/kg BW−1, 4 hrs) [fold] | NFAT binding to miR-374 promoter ([3]; 25 mg/kg BW−1, 4 hrs) | claudin-14 protein levels, upregulation ([1]; single oral dose 30 mg/kg BW−1, 2 hrs) [fold] | lacZ mRNA levels ([4]; claudin-14+/lacZ mouse kidneys, single-dose 30 mg/kg BW−1, 2 hrs)
– | CC(C)(Cc1ccc2ccccc2c1)NC[C@@H](O)COc1cccc(Cl)c1C#N [NPS2143] | Neither NPS2143 nor cinacalcet caused changes | 32 | 2.43 | 3.55 fold | 1.93 fold | 1.51 fold | – | – | – | – | – | – | – | –
– | O=C(CCCCCCC(=O)Nc1ccccc1)NO [SAHA, Suberanilohydroxamic acid] | – | – | – | – | – | – | 60 | no significant change | 2.40 | not affected | 2.45 | not affected | – | –
no change | C[C@@H](NCCCc1cccc(C(F)(F)F)c1)c1cccc2ccccc12 [cinacalcet] | Neither NPS2143 nor cinacalcet caused changes | – | – | without significant effect | not | without significant effect | – | – | – | – | – | – | 2.98 | no change
